The source of these data is ChEMBL document CHEMBL1151244, “Synthesis of A-seco derivatives of betulinic acid with cytotoxic activity” (J Nat Prod, 2004).

The term IC50 denotes the midpoint of a concentration-inhibition curve.

The structures appear in SMILES notation.

Type in all cases: functional, cell-based
One assay relates to CCRF-CEM. Briefly: Cytotoxicity against human CEM cells after 72 hrs by MTT assay. Background: Tetrazolium assays rely on reduction of a dye to a coloured formazan, in cell work by metabolically active cells.
The next assay concerns PC-3. Briefly: Cytotoxicity against human PC3 cells after 72 hrs by MTT assay. Particulars: PC-3, 72 h.
Assay [1] has as its system K562. Briefly: Cytotoxicity against paclitaxel-resistant human K562 cells after 72 hrs by MTT assay. Particulars: K562, 72 h.
Assay [2] deals with K562. In words: Cytotoxicity against human K562 cells after 72 hrs by MTT assay. Particulars: K562, 72 h.
The next assay has as its system HT-29. In words: Cytotoxicity against human HT-29 cells after 72 hrs by MTT assay. Particulars: HT-29, 72 h.
For the next assay, the system named is A549. Briefly: Cytotoxicity against human A549 cells after 72 hrs by MTT assay. To be noted: A549, 72 h.
Another assay has as its system MCF7. Briefly: Cytotoxicity against human MCF7 cells after 72 hrs by MTT assay. Particulars: MCF7, 72 h.
The test system of a further assay is DU-145. In words: Cytotoxicity against human DU145 cells after 72 hrs by MTT assay. Particulars: DU-145, 72 h.
In another assay the test system is SK-MEL-2. In words: Cytotoxicity against human SK-MEL-2 cells after 72 hrs by MTT assay. To be noted: SK-MEL-2, 72 h.

For `C=C(C)[C@@H]1CC[C@]2(C(=O)O)CC[C@]3(C)[C@H](CC[C@@H]4[C@@]5(C)CC[C@H](OC(C)=O)C(C)(C)[C@@H]5CC[C@]43C)[C@@H]12`, the IC50 in the assay on CCRF-CEM stood at 200 µM; in the assay on PC-3, 17 µM; with K562 [1], 19 µM; in the assay with K562 [2] it was 18 µM; in the assay with HT-29, 24 µM.

`C=C(C)[C@@H]1CC[C@]2(C(=O)OC(C)=O)CC[C@]3(C)[C@H](CC[C@@H]4[C@@]5(C)CC[C@H](OC(C)=O)C(C)(C)[C@@H]5CC[C@]43C)[C@@H]12`: the IC50 turned out to be 22 µM in the assay on CCRF-CEM; 93 µM in the assay with PC-3; 108 µM in the assay on K562 [1]; 88 µM with K562 [2]; 110 µM with HT-29.

Compound `C=C(C)[C@@H]1CC[C@]2(C(=O)OC(C)=O)CC[C@]3(C)[C@H](CC[C@@H]4[C@@]5(C)CC(=O)OC(=O)C(C)(C)[C@@H]5CC[C@]43C)[C@@H]12` returned an IC50 in the assay on CCRF-CEM of 6 µM.

With `C=C(C)[C@@H]1CC[C@]2(COC(C)=O)CC[C@]3(C)[C@H](CC[C@@H]4[C@@](C)(CCOC(C)=O)[C@H](C(C)(C)COC(C)=O)CC[C@]43C)[C@@H]12`, in the assay with CCRF-CEM, the IC50 is 250 µM.

On to `C=C(C)[C@@H]1CC[C@]2(C(=O)OC)CC[C@]3(C)[C@H](CC[C@@H]4[C@@]5(C)C=C(OC(C)=O)C(=O)C(C)(C)[C@@H]5CC[C@]43C)[C@@H]12`, for which the IC50 in the assay on CCRF-CEM was 91 µM; in the assay with PC-3, 98 µM; in the assay with K562 [1], 25 µM; in the assay with K562 [2] it was 60 µM; in the assay on HT-29 it was 46 µM.

On to `C=C(C)[C@@H]1CC[C@]2(C(=O)O)CC[C@]3(C)[C@H](CC[C@@H]4[C@@](C)(CC(=O)O)[C@H](C(C)(C)C(=O)O)CC[C@]43C)[C@@H]12`, for which the IC50 in the assay on CCRF-CEM turned out to be 250 µM; in the assay with PC-3, 169 µM; with K562 [1] it was 250 µM; in the assay with K562 [2], 145 µM; in the assay with HT-29, 219 µM.

As for `C=C(C)[C@@H]1CC[C@]2(C(=O)OC)CC[C@]3(C)[C@H](CC[C@@H]4[C@@]5(C)C=C(OC)C(=O)C(C)(C)[C@@H]5CC[C@]43C)[C@@H]12`, the IC50 was 5 µM with CCRF-CEM; 20 µM in the assay on PC-3; 10 µM in the assay on K562 [1]; 11 µM in the assay on K562 [2]; 19 µM in the assay on HT-29.

Turning to `C=C(C)[C@@H]1CC[C@]2(C(=O)OC)CC[C@]3(C)[C@H](CC[C@@H]4[C@@]5(C)[C@@H](O)OC(=O)C(C)(C)[C@@H]5CC[C@]43C)[C@@H]12`, the IC50 in the assay on CCRF-CEM came out at 250 µM; with PC-3, 116 µM; with K562 [1] it was 85 µM; with K562 [2], 119 µM; with HT-29, 65 µM.

For the compound `C=C(C)[C@@H]1CC[C@]2(C(=O)OC)CC[C@]3(C)[C@H](CC[C@@H]4[C@@](C)(CC(=O)O)[C@H](C(C)(C)C(=O)O)CC[C@]43C)[C@@H]12`, the IC50 in the assay with CCRF-CEM is 113 µM; with PC-3, 63 µM; in the assay on K562 [1], 75 µM; with K562 [2] it was 77 µM; in the assay on HT-29, 88 µM.

Take `C=C(C)[C@@H]1CC[C@]2(CO)CC[C@]3(C)[C@H](CC[C@@H]4[C@@](C)(CCO)[C@H](C(C)(C)CO)CC[C@]43C)[C@@H]12`: the IC50 in the assay with CCRF-CEM amounted to 20 µM; in the assay on PC-3, 49 µM; in the assay with K562 [1] it was 11 µM; in the assay with K562 [2], 9 µM; with HT-29 it was 11 µM.

Compound `C=C(C)[C@@H]1CC[C@]2(C(=O)O)CC[C@]3(C)[C@H](CC[C@@H]4[C@@]5(C)CC(=O)OC(=O)C(C)(C)[C@@H]5CC[C@]43C)[C@@H]12` displayed an IC50 in the assay with CCRF-CEM of 101 µM.

With `C=C(C)[C@@H]1CC[C@]2(C(=O)O)CC[C@]3(C)[C@H](CC[C@@H]4[C@@]5(C)C=C(OC(C)=O)C(=O)C(C)(C)[C@@H]5CC[C@]43C)[C@@H]12`, the concentration for half-maximal inhibition (IC50) in the assay with CCRF-CEM is 20 µM; in the assay on A549 it was 11 µM; in the assay on PC-3, 11 µM; with MCF7 it was 17 µM; in the assay with DU-145, 18 µM; in the assay with K562 [1], 16 µM. The IC50 with SK-MEL-2 amounted to 24 µM; in the assay with K562 [2] it was 5 µM; in the assay on HT-29 it was 7 µM.

Take `C=C(C)[C@@H]1CC[C@]2(C(=O)OC(=O)[C@]34CC[C@@H](C(=C)C)[C@@H]3[C@H]3CC[C@@H]5[C@@]6(C)CC[C@H](OC(C)=O)C(C)(C)[C@@H]6CC[C@@]5(C)[C@]3(C)CC4)CC[C@]3(C)[C@H](CC[C@@H]4[C@@]5(C)CC[C@H](OC(C)=O)C(C)(C)[C@@H]5CC[C@]43C)[C@@H]12`: the IC50 in the assay with CCRF-CEM was 240 µM; with PC-3, 187 µM; with K562 [1], 242 µM; in the assay with K562 [2] it was 104 µM; in the assay with HT-29, 173 µM.

Turning to `C=C(C)[C@@H]1CC[C@]2(C(=O)OC)CC[C@]3(C)[C@H](CC[C@@H]4[C@@](C)(CC(=O)OC)[C@H](C(C)(C)C(=O)OC)CC[C@]43C)[C@@H]12`, the IC50 was 250 µM with CCRF-CEM; 245 µM with PC-3; 76 µM with K562 [1]; 104 µM with K562 [2]; 99 µM in the assay with HT-29.

Regarding `C=C(C)[C@@H]1CC[C@]2(C(=O)OC)CC[C@]3(C)[C@H](CC[C@@H]4[C@@]5(C)CC[C@H](OC(C)=O)C(C)(C)[C@@H]5CC[C@]43C)[C@@H]12`, the IC50 stood at 16 µM in the assay with CCRF-CEM; 250 µM in the assay with PC-3; 250 µM with K562 [1]; 250 µM in the assay on K562 [2]; 250 µM with HT-29.

As for `C=C(C)[C@@H]1CC[C@]2(C(=O)O)CC[C@]3(C)[C@H](CC[C@@H]4[C@@]5(C)C=C(O)C(=O)C(C)(C)[C@@H]5CC[C@]43C)[C@@H]12`, the IC50 worked out at 4 µM in the assay on CCRF-CEM; 10 µM in the assay with A549; 10 µM in the assay on PC-3; 14 µM in the assay on MCF7; 23 µM in the assay with DU-145; 11 µM in the assay on K562 [1]. The IC50 in the assay with SK-MEL-2 came to 23 µM; in the assay with K562 [2], 6 µM; with HT-29 it was 6 µM.

Regarding `C=C(C)[C@@H]1CC[C@]2(C(=O)OC)CC[C@]3(C)[C@H](CC[C@@H]4[C@@]5(C)CC(=O)OC(=O)C(C)(C)[C@@H]5CC[C@]43C)[C@@H]12`, the IC50 in the assay with CCRF-CEM is 7 µM; with PC-3, 89 µM; in the assay on K562 [1] it was 12 µM; with K562 [2] it was 29 µM; in the assay with HT-29, 12 µM.

Consider `C=C(C)[C@@H]1CC[C@]2(C(=O)O)CC[C@]3(C)[C@H](CC[C@@H]4[C@@]5(C)[C@@H](O)OC(=O)C(C)(C)[C@@H]5CC[C@]43C)[C@@H]12`, for which the IC50 with CCRF-CEM worked out at 96 µM; in the assay on PC-3, 79 µM; in the assay on K562 [1], 81 µM; with K562 [2], 81 µM; in the assay on HT-29, 58 µM.

For the compound `C=C(C)[C@@H]1CC[C@]2(C(=O)OC)CC[C@]3(C)[C@H](CC[C@@H]4[C@@]5(C)C=C(O)C(=O)C(C)(C)[C@@H]5CC[C@]43C)[C@@H]12`, the IC50 with CCRF-CEM was 23 µM; in the assay with A549, 11 µM; in the assay with PC-3, 10 µM; in the assay on MCF7, 6 µM; in the assay with DU-145, 9 µM; in the assay with K562 [1], 8 µM. The IC50 in the assay on SK-MEL-2 is 11 µM; in the assay on K562 [2] it was 8 µM; with HT-29 it was 6 µM.

As to `C=C(C)[C@@H]1CC[C@]2(C(=O)O)CC[C@]3(C)[C@H](CC[C@@H]4[C@@]5(C)CC[C@H](O)C(C)(C)[C@@H]5CC[C@]43C)[C@@H]12` [BETULINIC ACID], the IC50 is 27 µM in the assay with CCRF-CEM; 146 µM in the assay on A549; 91 µM with PC-3; 143 µM in the assay on MCF7; 196 µM with DU-145; 112 µM with K562 [1]. For the same compound, the IC50 in the assay on SK-MEL-2 turned out to be 21 µM; in the assay with K562 [2], 56 µM; in the assay on HT-29, 89 µM.

In the case of `C=C(C)[C@@H]1CC[C@]2(C(=O)O)CC[C@]3(C)[C@H](CC[C@@H]4[C@@]5(C)CCC(=O)C(C)(C)[C@@H]5CC[C@]43C)[C@@H]12` [BETUNOLIC ACID], the IC50 in the assay with CCRF-CEM amounted to 17 µM; with MCF7, 29 µM; in the assay with DU-145, 36 µM; with K562 [1] it was 17 µM.

With `C=C(C)[C@@H]1CC[C@]2(C(=O)OC)CC[C@]3(C)[C@H](CC[C@@H]4[C@@]5(C)CC[C@H](O)C(C)(C)[C@@H]5CC[C@]43C)[C@@H]12` [METHYL BETULINATE], the IC50 in the assay with CCRF-CEM amounted to 150 µM; in the assay with PC-3, 109 µM; with K562 [1], 65 µM; in the assay on K562 [2], 71 µM; in the assay with HT-29, 61 µM.

Turning to `C=C(C)[C@@H]1CC[C@]2(C(=O)OC)CC[C@]3(C)[C@H](CC[C@@H]4[C@@]5(C)CCC(=O)C(C)(C)[C@@H]5CC[C@]43C)[C@@H]12` [METHYL BETULONATE], the IC50 with PC-3 was 250 µM; in the assay on K562 [1], 250 µM; with K562 [2] it was 239 µM; with HT-29, 250 µM.
